Test results as given in patent US10758511B2, “Stable analogs of CYP450 lipid metabolites and inhibitors of soluble epoxide hydrolase” (Massachusetts Eye and Ear Infirmary, priority 2015, dated 2020).
Converted amounts (≈) assume the structure as drawn. Marks after values point to notes of the source that are not given here.

Experiments:
[1] = Formulations of selected inhibitors of sEH (mg/mL); assay type: physicochemical
C57BL/6 mice = assay: Laser-induced CNV model (flat-mount, SD-OCT, fluorescein angiography); assay type: in vivo, mouse; details: for CNV size or severity compared to base line controls: EETs once a day after laser photocoagulation
From the text: J Med Chem 54(12):4109-4118).

[2] = system: peripheral blood leukocytes (PBLs); assay: Autoperfused microflow chamber assay, leukocyte rolling velocity; assay type: in vivo, mouse; details: chamber coated with ICAM-1 and P-selectin, 50 μg/kg/day i.p., day 3 after CNV induction
Protocol: A combination of intercellular adhesion molecule 1 (ICAM-1) and P-selectin (R&D Systems), each at a concentration of 5 μg/mL, was used to coat translucent microchambers (0.4×0.04×50 mm, VitroCom) overnight at 4° C. Biocompatible polyester tubing (PE10; Becton Dickinson) was attached to both ends of each microchamber, and the apparatus was subsequently incubated for 1 hour with 0.1% BSA (Sigma-Aldrich) in order to prevent nonspecific leukocyte interaction with the inner surface of the apparatus. The left jugular vein and right carotid artery in an anesthetized mouse were surgically connected to the free ends of both tubes, thus allowing blood to flow from the right carotid artery and into the microchamber (via the inlet tube), and then into the left jugular vein (via the outlet tube) for recirculation. Blood flow rate through the microchamber was controlled via a screw valve on the inlet tube that could change the tube diameter. For continuous blood pressure measurements, three-way connectors were used to embed microtransducers (Harvard Apparatus) before and after the microchamber. Digitizing the analog output from these microtransducers required an A/D converter (ML785 PowerLab/8SP; ADInstruments) linked to a computer running CHART V7 software (ADInstruments). […] A fixed-stage intravital microscope (Leica) with a 63× objective and a monochromic camera (DFC 360 FX; Leica) were used to observe and record leukocyte rolling along immobilized adhesion molecules. Recordings lasted at least 30 s and incorporated ten different fields of view. Using ImageJ software, leukocyte rolling velocity was calculated based on individual cell displacement along the surface of the chamber over time (i.e., Δd/Δt). Flux was calculated as the mean number of leukocytes interacting with the chamber surface per field of view (i.e., average of 10 independent fields of view).
Autoperfused Microflow Chamber assay was used to assess the impact of 17,18-EEQ and 19,20-EDP on systemic leukocyte recruitment during CNV development. The rolling velocity of peripheral blood leukocytes (PBLs) in the circulating blood was measured 3 days post CNV induction, as this reflects the peak of immune cell infiltration in this model.

E-selectin = assay: Real-time PCR of E-selectin mRNA in laser-captured CNV lesions; assay type: in vivo, mouse; details: 50 μg/kg/day i.p., 7 days post CNV induction
Protocol: Immediately after enucleation, mouse eyes were placed in optimum cutting temperature (OCT) compound and swiftly frozen. Under RNase-free conditions, eyes were cryosectioned (10 μm thickness per section) and mounted on polyethylene naphthalate glass slides (Leica). After dehydrating with washes of 50, 75, and 100% ethanol, the slides were stained with isolectin B4 at a dilution of 1:50 in 1 mM CaCl2. Laser-capture microdissection (Leica LMD 7000 system) was used to isolate chorioretinal vessels in CNV lesions, which were then placed in RNA-stabilizing buffer (RNeasy Micro Kit; Qiagen). […] Real-time PCR was conducted on a StepOne real-time PCR System (Applied Biosystems) with mouse TaqMan expression assays for the following genes (Applied Biosystems): E-selectin (Mm00441278_m1), kam-1 (Mm00516023_m1), and β-actin (Mm00607939_s1). All data were normalized to β-actin cDNA.

Rat sEH = target: T1, Rat sEH (Rattus norvegicus, UniProt P80299); assay: sEH inhibition (IC50), fluorescent substrate CMNPC; assay type: biochemical; details: CMNPC as a substrate; ureas found in Brassicales
T1 sequence (P80299 1-554): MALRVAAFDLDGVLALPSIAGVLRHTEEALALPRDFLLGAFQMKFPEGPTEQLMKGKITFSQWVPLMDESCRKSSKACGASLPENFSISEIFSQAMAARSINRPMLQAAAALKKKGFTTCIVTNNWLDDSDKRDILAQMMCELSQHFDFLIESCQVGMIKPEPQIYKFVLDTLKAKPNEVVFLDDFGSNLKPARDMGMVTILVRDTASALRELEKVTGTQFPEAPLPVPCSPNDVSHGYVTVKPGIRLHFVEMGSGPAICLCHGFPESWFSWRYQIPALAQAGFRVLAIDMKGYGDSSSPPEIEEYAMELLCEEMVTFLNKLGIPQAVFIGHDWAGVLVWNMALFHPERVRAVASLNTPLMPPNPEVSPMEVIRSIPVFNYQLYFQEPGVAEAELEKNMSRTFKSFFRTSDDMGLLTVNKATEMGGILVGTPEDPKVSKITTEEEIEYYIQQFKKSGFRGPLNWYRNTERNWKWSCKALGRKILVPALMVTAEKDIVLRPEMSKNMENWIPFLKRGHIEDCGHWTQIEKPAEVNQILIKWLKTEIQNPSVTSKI

[3] = Solubility in sodium phosphate buffer (pH7.4); assay type: physicochemical; details: pH 7.4, aqueous buffer, Mean ± SD (n = 3)
Human sEH = target: T2, Human sEH (Homo sapiens, UniProt P34913); assay: sEH inhibition (IC50), fluorescent substrate CMNPC; assay type: biochemical; details: CMNPC as a substrate; ureas found in Brassicales
T2 sequence (P34913 1-555): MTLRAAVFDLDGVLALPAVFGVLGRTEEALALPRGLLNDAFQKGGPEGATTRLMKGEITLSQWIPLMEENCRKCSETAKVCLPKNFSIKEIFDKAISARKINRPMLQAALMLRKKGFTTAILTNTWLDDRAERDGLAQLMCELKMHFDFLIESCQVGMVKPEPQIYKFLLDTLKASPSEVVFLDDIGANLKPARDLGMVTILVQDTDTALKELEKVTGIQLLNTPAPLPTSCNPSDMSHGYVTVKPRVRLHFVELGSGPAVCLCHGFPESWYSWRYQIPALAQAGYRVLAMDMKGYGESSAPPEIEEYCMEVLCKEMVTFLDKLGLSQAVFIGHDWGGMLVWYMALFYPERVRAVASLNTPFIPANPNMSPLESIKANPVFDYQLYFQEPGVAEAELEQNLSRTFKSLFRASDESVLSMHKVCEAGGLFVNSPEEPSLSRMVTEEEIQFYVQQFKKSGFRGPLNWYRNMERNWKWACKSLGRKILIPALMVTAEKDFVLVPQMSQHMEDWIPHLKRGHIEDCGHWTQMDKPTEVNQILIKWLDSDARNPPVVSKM

[4] = sodium phosphate buffer (pH7.4); data from Kitamura et al., (2015); cited from earlier work
[5] = C57BL/6 mice, 7 d after CNV induction
[6] = C57BL/6 mice, 50 μg/kg/day i.p. once a day, 7 d after CNV induction

## O=C(Nc1ccc(C(F)(F)F)cc1)NC1CCC(Oc2ccc(C(=O)O)cc2)CC1 (centres unmarked)
[1]
  Formulation (mg/mL) EtOH: 20 mg/mL
  Formulation (mg/mL) PEG400: 20 mg/mL
  Formulation (mg/mL) Trioleate: 0.625 mg/mL

## CC(C)C(=O)N1CCC(NC(=O)Nc2ccc(C(F)(F)F)cc2)CC1
[1]
  Formulation (mg/mL) EtOH: 20 mg/mL
  Formulation (mg/mL) PEG400: 20 mg/mL
  Formulation (mg/mL) Trioleate: 0.625 mg/mL

## CCCCS(=O)(=O)N1CCC(NC(=O)Nc2ccc(C(F)(F)F)cc2)CC1
[1]
  Formulation (mg/mL) EtOH: 13 mg/mL
  Formulation (mg/mL) PEG400: 13 mg/mL
  Formulation (mg/mL) Trioleate: 1.25 mg/mL

## CCCCC/C=C\C/C=C\CC1OC1C/C=C\CCCC(=O)O (centres unmarked) [8,9-EET, reference compound]
C57BL/6 mice; [5]
  CNV size or severity compared to base line controls: do not affect
[2]; PBS 2.30±0.13
  rolling velocity of PBLs: 1.14±0.15 μm/s

## CCCCC/C=C\C[C@H]1O[C@H]1C/C=C\C/C=C\CCCC(=O)O [11,12-EET]
C57BL/6 mice; [5]
  CNV size or severity compared to base line controls: do not affect
[2]; PBS 2.30±0.13
  rolling velocity of PBLs: 1.41±0.45 μm/s
E-selectin
  mRNA level of E-selectin in CNV lesions compared to PBS injected controls: significant increase

## CCCCCC1OC1C/C=C\C/C=C\C/C=C\CCCC(=O)O (centres unmarked) [14,15-EET, reference compound]
C57BL/6 mice; [5]
  CNV size or severity compared to base line controls: do not affect
[2]; PBS 2.30±0.13
  rolling velocity of PBLs: 1.41±0.11 μm/s

## CCC1OC1C/C=C\C/C=C\C/C=C\C/C=C\CCCC(=O)O (centres unmarked) [17,18-EEQ, 17,18-epoxyeicosatetraenoic acid]
[2]; PBS 0.94±0.06
  rolling velocity of PBLs: 1.48±0.16 μm/s

## CCC1OC1C/C=C\C/C=C\C/C=C\C/C=C\C/C=C\CCC(=O)O (centres unmarked) [19,20-EDP]
[2]; PBS 0.94±0.06
  rolling velocity of PBLs: 1.44±0.12 μm/s

## CCOCCOCCOCCCCCNC(=O)NC12CC3CC(CC(C3)C1)C2 [AEPU]
physchem
  logP: 2.6

## COc1ccc(CNC(=O)NCc2ccccc2)cc1 [BMU]
Rat sEH
  IC50: 182 nM
[3]
  solubility: 9 ± 4 µM (≈ 2.43 µg/mL)

## O=C(NCc1ccccc1)NCc1ccccc1 [Compound 1]
Rat sEH
  IC50: 385 nM
[3]
  solubility: 43 ± 5 µM (≈ 10.3 µg/mL)

## COc1cccc(CNC(=O)NCc2ccccc2)c1 [Compound 2]
Rat sEH
  IC50: 308 nM
Human sEH
  IC50: 534 nM
[3]
  solubility: 77 ± 9 µM (≈ 20.8 µg/mL)

## COc1cccc(CNC(=O)NCc2cccc(OC)c2)c1 [Compound 3]
Rat sEH
  IC50: 155 nM
Human sEH
  IC50: 222 nM
[3]
  solubility: 101 ± 37 µM (≈ 30.3 µg/mL)

## CNC(=O)C(=O)NCCCC/C=C\CCCCCCCCCC(=O)O [Compound C21, (Z)-16-(2-(methylamino)-2-oxoacetamido)hexadec-11-enoic acid]
C57BL/6 mice; C21 intraperitoneally once a day for 7 days, FIGS. 20A-20C
  CNV attenuation compared to EEQ administered alone: did not show a significant difference
C57BL/6 mice; [6]
  CNV size in choroidal flat mounts compared to control vehicle: significantly reduced
  CNV size in cross-sectional SD-OCT compared to control vehicle: significantly reduced
  vascular leakage in CNV lesions (fluorescein angiography) compared to control vehicle: significantly reduced

## COc1ccc(CNC(=O)NCc2ccc(OC)cc2)cc1 [MMU]
Rat sEH
  IC50: 218 nM
[4]
  Solubility (μM): 11 ± 2^c μM
